Experimental data as given in publication PMC4207131, “Cyclic Adenosine 5′-Diphosphate Ribose Analogs without a “Southern” Ribose Inhibit ADP-ribosyl Cyclase–Hydrolase CD38” (Journal of Medicinal Chemistry, 2014).
Entries after “also recorded” stand apart in the source; their conditions may differ. Where two headings read alike, the source gives them in different places.

Assays:
[1] = cited from earlier work
[2] = cited from earlier work; remark: listed apart in the source
[3] = target: T1, CD38 catalytic domain (shCD38) (Homo sapiens, UniProt P28907, N100D/N164A/N209D/N219D); experiment: RP-HPLC study of ligand hydrolysis by shCD38; conditions: for hydrolysis by shCD38 at high concentration / time to 50% hydrolysis: shCD38 4 mg/mL; for hydrolysis by shCD38 at high concentration / hydrolysis by shCD38 at enzyme assay concentration / time to 50% hydrolysis: ligand 1 mM; for hydrolysis by shCD38 at enzyme assay concentration: shCD38 1 μg/mL; for time to 50% hydrolysis: Tris-HCl pH 8, room temperature
T1 sequence (P28907 43-300 N100D/N164A/N209D/N219D limits assumed): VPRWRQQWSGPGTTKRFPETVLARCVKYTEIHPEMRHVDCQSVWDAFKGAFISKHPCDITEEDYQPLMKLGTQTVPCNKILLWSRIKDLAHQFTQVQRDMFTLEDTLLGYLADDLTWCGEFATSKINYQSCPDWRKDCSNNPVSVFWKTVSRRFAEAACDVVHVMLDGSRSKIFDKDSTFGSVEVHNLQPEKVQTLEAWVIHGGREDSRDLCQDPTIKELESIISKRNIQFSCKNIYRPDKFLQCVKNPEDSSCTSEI
Method: Incubation of 7 (1 mM final concentration) with 4 mg/mL shCD38 was monitored using RP-HPLC.
Therefore, further HPLC experiments were carried out using shCD38 concentrations of 1 μg/mL and either cIDPR or 7 to observe the effect of CD38 under conditions that reflect the enzyme assay (Supporting Information, Figure S3).
The solution containing the CD38 catalytic domain was adjusted to the desired concentration using Tris-HCl buffer (20 mM, pH 8), and 50 μL therefrom was added to the inhibitor (0.05 μmol) in an Eppendorf tube at room temperature. At a given time point, a sample of 5 μL was removed and diluted with 95 μL of Milli-Q water. Then 10 μL of this sample was injected directly into the analytical HPLC system (see section General in Experimental Section), eluting at 1 mL/min with an isocratic ion-pair buffer: 0.17% (m/v) cetrimide and 45% (v/v) phosphate buffer (pH 6.4) in MeOH.

[4] = target: T1, CD38 catalytic domain (shCD38); parameters: incubating 1 μM cADPR with 1 μg/mL CD38 catalytic domain for 10 min; made in house; conditions: equivalent 8-substituted cIDPRs; read-out: IC50, inhibition of shCD38-mediated cADPR hydrolysis; cited from earlier work
[5] = test system: Ca^2+-release in permeabilized T-cells; parameters: method as in PMID 12932045, PMID 19492987; conditions: cited from earlier work
[6] = target: T1, CD38 catalytic domain (shCD38); experiment: Inhibition of shCD38-mediated cADPR hydrolysis (fluorimetric cycling assay); assay type: biochemical; parameters: incubating 1 μM cADPR with 1 μg/mL CD38 catalytic domain for 10 min; made in house; conditions: 1 μM cADPR, 1 μg/mL CD38 catalytic domain, 10 min, 20–24 °C, 25 mM sodium acetate pH 4.5
Method: The inhibition of cADPR hydrolysis by various concentrations of analog (0–1 mM) was determined by incubating 1 μM cADPR with 1 μg/mL CD38 catalytic domain for 10 min at 20–24 °C in 25 mM sodium acetate, pH 4.5. The reaction was stopped by the addition of 150 mM HCl. The precipitated protein was filtered, and the pH was neutralized with Tris base. After the mixture was diluted 20-fold, the concentration of the unhydrolyzed cADPR present in the diluted reaction mixture was assayed by the fluorimetric cycling assay as described previously.[52]

N=c1c2ncn3c2ncn1[C@@H]1O[C@H](COP(=O)(O)OP(=O)(O)OC[C@H]2O[C@@H]3[C@H](O)[C@@H]2O)[C@@H](O)[C@H]1O [cADPR, Cyclic adenosine 5′-diphosphate ribose]
pKa of the N6-amino form [1]: 8.3 | hydrolysis at the N1 link ([2]; neutral aqueous solution and physiological conditions): hydrolyzed at the N1 link in both neutral aqueous solution and under physiological conditions

O=c1c2ncn3c2ncn1[C@@H]1O[C@H](COP(=O)(O)OP(=O)(O)OCCCC3)[C@@H](O)[C@H]1O [compound 4, N1-Cyclic Hypoxanthine-N9-hydroxybutyl Diphosphate Ribose]
hydrolysis by shCD38 at high concentration [3]: hydrolyzed by the enzyme at 4 mg/mL but at a slower rate than 7

N=c1c2ncn3c2ncn1[C@@H]1C[C@H](COP(=O)(O)OP(=O)(O)OC[C@H]2O[C@@H]3[C@H](O)[C@@H]2O)[C@@H](O)[C@H]1O [cADPcR, cyclic adenosine 5′-diphosphate carbocyclic ribose]
pKa of the N6-amino dissociation [1]: 8.9

Nc1nc2c(=O)n3cnc2n1C1OC(COP(=O)(O)OP(=O)(O)OCC2OC3C(O)C2O)C(O)C1O (stereo not drawn) [8-NH2-cIDPR]
IC50 [4]: 56 µM

O=c1c2ncn3c2ncn1[C@@H]1O[C@H](COP(=O)(O)OP(=O)(O)OC[C@H]2O[C@@H]3[C@H](O)[C@@H]2O)[C@@H](O)[C@H]1O [compound 2, N1-cyclic inosine 5′-diphosphate ribose]
hydrolysis by shCD38 at enzyme assay concentration ([3]; listed as cIDPR): neither cIDPR (2) or 8-NH2-N9-butyl-; also recorded: not hydrolyzed | hydrolysis by shCD38 at high concentration [3]: hydrolyzed by the enzyme at 4 mg/mL but at a slower rate than 7 | time to 50% hydrolysis [3]: 420 min | Ca2+-release agonism ([5]; permeabilized T-cells): agonist for Ca^2+-release with almost equivalent potency to cADPR | ionization over the pH range [1]: no ionization between 6.8 and 10.9 | chemical and biological stability [2]: Chemically and biologically stable

[N-]=[N+]=Nc1nc2c(=O)n3cnc2n1CCCCOP(=O)(O)OP(=O)(O)OC[C@H]1O[C@@H]3[C@H](O)[C@@H]1O [compound 6, N1-Cyclic-8-azidohypoxanthine-N9-hydroxybutyl Diphosphate Ribose]
IC50 [6]: 6.4 µM

Nc1nc2c(=O)n3cnc2n1CCCCOP(=O)(O)OP(=O)(O)OC[C@H]1O[C@@H]3[C@H](O)[C@@H]1O [compound 7, N1-Cyclic-8-aminohypoxanthine-N9-hydroxybutyl Diphosphate Ribose]
change of the ligand peak in the control without shCD38 ([3]; parallel control containing no shCD38): no change in the original peak | hydrolysis by shCD38 at enzyme assay concentration [3]: not hydrolyzed | hydrolysis by shCD38 at high concentration [3]: faster hydrolysis | time to 50% hydrolysis [3]: 105 min | IC50 [6]: 3.3 µM

O=c1c2nc(Br)n3c2ncn1[C@@H]1O[C@H](COP(=O)(O)OP(=O)(O)OCCCC3)[C@@H](O)[C@H]1O [compound 5, N1-Cyclic-8-bromohypoxanthine-N9-hydroxybutyl Diphosphate Ribose]
hydrolysis by shCD38 at high concentration [3]: hydrolyzed by the enzyme at 4 mg/mL but at a slower rate than 7 | IC50 [6]: 27 µM

O=c1c2nc(Br)n3c2ncn1[C@@H]1O[C@H](COP(=O)(O)OP(=O)(O)OC[C@H]2O[C@@H]3[C@H](O)[C@@H]2O)[C@@H](O)[C@H]1O [compound 3]
Ca2+-release agonism, membrane permeant [5]: stable membrane permeant agonist of Ca^2+ release | chemical and biological stability [2]: Chemically and biologically stable
